From PMC2862740, “Furin Targeted Drug Delivery for Treatment of Rhabdomyosarcoma in a Mouse Model” (PLoS ONE, 2010)
Entries after “also recorded” stand apart in the source; their conditions may differ. Positions of bridges follow the written chain, without caps; N, C: chain ends. No end group written: not given here.

Assays:
Rh30 cells = test: phage binding to Rh30 cells; type: cell-based; details: three independent experiments
Experimental: (§1) Figure 1 Validation of selected phages binding on RMS cells in vivo and in vitro. (A) Quantification of binding of single phage clones to different cell lines. Six phages selected from in vitro and in vivo screenings were validated individually in binding assays to three RMS cell lines (embryonal RMS: RD; alveolar RMS: Rh30 and Rh4) as well as to normal myoblasts (SkMC-c) and fibroblast cells (MRC-5). Phage clones are ordered according to the frequency of occurrence. Binding was calculated over non-recombinant T7, depicted are mean values ± SD of three independent experiments. (B) RMS-P3 and RMS-P6 phage distribution in RD mouse xenografts. Homing of phages to tumor was compared to control organs. Binding was normalized over phage T7 and tissue weight. Mean values ± SD of four independent experiments are shown. Numerical values for tumor to organ ratios are indicated above the bars. (C) Validation of RMS-P3 peptide sequence by competition of phage binding. 10^6 RD cells were incubated for 30 min with increasing concentrations of RMS-P3 peptide ([…]) or control peptide ([…]). Then, phages (10^9 pfu) were added for 1 h. Phage binding was normalized over non-recombinant T7. Data are presented as percentage of maximal phage binding obtained in the absence of synthetic peptide. Error bars indicate mean ± SD from three independent experiments. […]

Rh4 cells = test: phage binding to Rh4 cells; type: cell-based; details: three independent experiments
Experimental: as §1

RD cells = test: phage binding to RD cells; type: cell-based
Experimental: as §1
Figure 3 Identification of the receptor for RMS-P3. […] Phage binding was quantified over non-recombinant T7 and compared to the binding of wild type phage RMS-P3. […] After tail vein injection of both FITC-RMS-P3/RR or control peptide RMS-P3/AA and circulation of 10 min, mice were perfused, tumors and control organs were dissected and FITC-peptide distribution (green) was evaluated in cryosections under fluorescence microscopy. […] (C) Expression of proprotein convertases (PCs) measured by microarray profiling of 9 RMS cell lines and 30 RMS biopsy samples. […] Immature membrane-bound furin was detected at 103 kD, mature furin at 97 kD. […]

RD xenograft tumors = test: phage homing in RD xenografts; type: in vivo, mouse; details: for phage binding to tumors versus any other organ: RD (or Rh4) xenografts, One-way ANOVA and Tukey-Kramer HSD
Experimental: Figure 1 Validation of selected phages binding on RMS cells in vivo and in vitro. (A) Quantification of binding of single phage clones to different cell lines. Six phages selected from in vitro and in vivo screenings were validated individually in binding assays to three RMS cell lines (embryonal RMS: RD; alveolar RMS: Rh30 and Rh4) as well as to normal myoblasts (SkMC-c) and fibroblast cells (MRC-5). Phage clones are ordered according to the frequency of occurrence. Binding was calculated over non-recombinant T7, depicted are mean values ± SD of three independent experiments. (B) RMS-P3 and RMS-P6 phage distribution in RD mouse xenografts. Homing of phages to tumor was compared to control organs. Binding was normalized over phage T7 and tissue weight. Mean values ± SD of four independent experiments are shown. Numerical values for tumor to organ ratios are indicated above the bars. (C) Validation of RMS-P3 peptide sequence by competition of phage binding. 10^6 RD cells were incubated for 30 min with increasing concentrations of RMS-P3 peptide ([…]) or control peptide ([…]). Then, phages (10^9 pfu) were added for 1 h. Phage binding was normalized over non-recombinant T7. Data are presented as percentage of maximal phage binding obtained in the absence of synthetic peptide. Error bars indicate mean ± SD from three independent experiments. […] TEXT PRINTED IN THE PICTURE: (B) RMS-P6: tumor: 1; muscle: 1/6; kidney: 1/8; brain: 1/28; skin: 1/12 | (B) RMS-P3: tumor: 1; muscle: 1/24; kidney: 1/15; brain: 1/12; skin: 1/10 DOUBTS OF THE COPYIST ABOUT THIS PICTURE: Panel B: the picture prints no measure for the numbers over the bars. Each tissue name was assigned from the bar fill and the order of the printed key. / RMS-P6, brain: 1/28, the last digit may be 8 or 6 (small print)
Phage (10^10 pfu) from in vitro biopannings were tail vein injected into mice bearing size-matched RMS tumors (500 mm^3) as described in [57].

[1] = tested on: RMS cells (RD, Rh4, Rh30); test: phage binding to RMS cell lines versus normal cells; type: cell-based; details: control phage
Experimental: as §1

recombinant human furin [2] = test: furin activity, fluorogenic substrate Boc-RRVR-AMC; type: biochemical
Experimental: The enzymatic activity of furin was determined by the cleavage of the fluorogenic substrate Boc-RRVR-AMC (Alexis biochemicals) in presence or absence of peptides. Human recombinant furin (3.3U for reaction; Alexis biochemicals) was preincubated for 15 minutes at RT with the peptide RMS-P3/RR or the peptide RMS-P3/AA as negative control at increasing concentrations. For each assay, the same concentration of substrate (100 µM) was added to a solution containing 50 mM Tris HCl with 1 mM CaCl2 (pH 7) in a total volume of 100 µl. The reaction was followed for 1h while measuring the fluorescence every 10 minutes in a spectrofluorometer at excitation 370 nm/emission 460 nm.

recombinant human furin [3] = test: peptide affinity chromatography, recombinant furin; type: binding; details: recombinant human furin without membrane-domain (81 kD), overnight at 4°C, western blot
Experimental: (§2) Figure 5 RMS-P3/RR peptide binds directly to furin and inhibits its activity. Lysates of RD-FUR cells (approximately 1 mg of total protein, upper rows) or purified recombinant furin (250 ng; lower rows) were loaded on a RMS-P3/RR column (A) or on the control peptide column RMS-P3/AA (B). The columns were washed 10 times to remove unbound furin. The loaded RMS-P3/RR-column was eluted first with control peptide RMS-P3/AA, then with peptide RMS-P3/RR. The RMS-P3/AA column was eluted first with RMS-P3/RR and subsequently cross-eluted with the control peptide RMS-P3/AA. The presence of furin in aliquots from the columns (1) after binding, (2) flow through, (3) last wash, (4) control elution and (5) competitive elution with RMS-P3/RR (in A) and […] (in B), respectively, was detected by western blotting. (C) Fixed amounts of recombinant furin (3.3U) were incubated with increasing concentrations of RMS-P3/RR peptide or with control peptide (RMS-P3/AA). Furin activity was measured with the fluorogenic substrate Boc-RRVR-AMC at excitation 370 nm/emission 460 nm. The results of three independent experiments ± SD are shown.
(§3) RMS-P3/RR or control peptide RMS-P3/AA were dissolved in 0.2 M phosphate buffer pH 7.2 to 1 mg/ml and covalently linked to NHS-activated sepharose matrix SpinTrapTM (GE Healthcare, Amersham Biosciences, Switzerland). […]

membrane-bound furin = test: peptide affinity chromatography, RD-FUR lysate; type: binding; details: western blot, 97kDa
Experimental: as §2, §3

[4] = tested on: RD xenograft tumors and control organs; test: FITC-peptide distribution in xenograft mice; type: in vivo, mouse; details: RD xenografts, i.v., 10 min circulation
Experimental: Figure 2 FITC-labeled RMS-P3 binding in vitro and distribution in vivo. (A) Visualization of FITC-RMS-P3 peptide binding in normal and cancer cells in vitro. Cultured myoblasts (SkMC-c), fibroblasts (MRC-5), RMS cells (RD) and breast carcinoma cells (MDA-MB 231) were incubated with 100 nM FITC-RMS-P3 peptide for 1 h at 37°C. Fluorescence microscopy of fixed cells is shown. (B) Living RD cells were incubated with FITC-RMS-P3 peptide, subsequently fixed and stained with giantin (red). Colocalization is shown in the merged picture by yellow. Blue staining (DAPI) indicates the nuclei. Magnifications: 40x, scale bars: 20 µm. (C) Distribution of FITC-RMS-P3 and control peptide FITC-RMS-Pctrl in mice xenografts of RD cells. FITC-RMS-P3 or control FITC-RMS-Pctrl peptide were injected i.v. and after 10 minutes of circulation, mice were perfused and tumor and control organs were collected. Cryosections were double-labeled with mouse endothelial vessels markers CD31 and MECA-32 (red). Nuclear staining by DAPI is shown in blue. Magnifications: 40x, scale bars: 20 µm.
Figure 3 Identification of the receptor for RMS-P3. (A) Alanine-scan of the RMS-P3 sequence. RMS-P3 was mutated by replacing each amino acid residue with alanine (codon GCT). All phage mutants were tested individually for binding to RD cells in vitro. Mutated residues are indicated in bold. Phage binding was quantified over non-recombinant T7 and compared to the binding of wild type phage RMS-P3. Depicted are mean values ± SD of three independent experiments. […] (B) FITC-RMS-P3/RR and FITC-RMS-P3/AA distribution in RD xenograft mice. After tail vein injection of both FITC-RMS-P3/RR or control peptide RMS-P3/AA and circulation of 10 min, mice were perfused, tumors and control organs were dissected and FITC-peptide distribution (green) was evaluated in cryosections under fluorescence microscopy. Blood endothelial stainings (CD31 and MECA32) are shown in red, nuclear staining in blue (DAPI). Magnification: 20x, scale bar 50 µm. (C) Expression of proprotein convertases (PCs) measured by microarray profiling of 9 RMS cell lines and 30 RMS biopsy samples. Expression of PCs recognizing the cleavage site R(X)(R/K)(R/K) were considered. Each cell line or biopsy is represented by one data point. (D) Furin expression in different cell lines. Normal myoblasts (SkMC-c), fibroblasts (MRC-5), RMS cell lines (RD, Rh4, Rh30), furin-deficient colorectal carcinoma cells (LoVo) and furin-positive breast carcinoma cells (MBA-MB 231) were tested for furin expression by qRT-PCR (upper graph). […] Western blot (lower panels). Immature membrane-bound furin was detected at 103 kD, mature furin at 97 kD. PCNA was used as loading control.
Figure 6 FITC-RMS-P3/RR and FITC-RMS-P3/AA distribution in mice bearing RD xenografts. Peptides were injected i.v. and after circulation the mice were perfused, tumors and control organs were removed and peptide distribution was evaluated on cryosections by fluorescence microscopy. Depicted are overlay images (B, upper left panel) and single channel pictures. FITC-peptide stainings (green), either furin or endothelial stainings (CD31, MECA32) in red and cell nuclei in blue (DAPI) are shown. Magnification: 40x, scale bars 50 µm.
Supplementary file pone.0010445.s002.tif: Figure S2 Subcellular localization of FITC-RMS-P3 peptide. (A, B) FITC-RMS-P3/RR cell surface and intracellular localization. RD cells were incubated with 100 nM FITC-RMS-P3 peptide in vitro for 30 min at 4°C (A) or 37°C (B), respectively. Fixed cells were stained with undiluted 5.1H11 hybridoma supernatant against the human muscle-specific cell surface antigen N-CAM (red). A secondary rabbit anti-mouse Cy3 antibody (1∶300, Invitrogen) was used for detection. […] Cell nuclei were visualized with DAPI. Nuclei are indicated in grey. Magnification: 63x, scale bars: 20 µm. […]

Rh4 xenograft tumors = test: phage homing in Rh4 xenografts; type: in vivo, mouse; details: aRMS (Rh4) xenograft
Experimental: (§4) Supplementary file pone.0010445.s001.tif: Figure S1 Phage selection and validation on RMS cells in vivo and in vitro. (A) Biopanning on RD cells in vitro after negative selection on myoblasts (panning I) and (B) fibroblasts (panning II). Enrichment was calculated over non-recombinant phage T7. (C) In vivo selection in Rh4 xenografts. Phages from in vitro selection before enrichment were pooled and used for in vivo selection in Rh4 xenografts. Phages were injected in the tail vein and after 10 min circulation unbound phages were washed by perfusion. Phage binding to tumors and control organs was calculated over non-recombinant phage T7. (D) RMS-P3 and RMS-P6 phage distribution in Rh4 xenografts. Homing of phages in mouse xenografts bearing Rh4 tumors was determined and compared to control organs. Binding was normalized over phage T7 and tissue weight. Mean values of three independent experiments are shown. Numerical values for tumor to organ ratios are indicated above the bars. (E) Quantification of binding of RMS-P3 phage to a panel of tumor cell lines: RMS (RD, Rh30, Rh4), breast tumor (MDA-MB 231), glioblastoma (U87MG), melanoma (A365); and normal myoblasts (SkMC-c) and fibroblast cells (MRC-5). Mean values ± SD of three independent experiments are depicted. (0.55 MB TIF) Click here for additional data file.

MDA-MB 231 cells = test: phage binding to breast carcinoma cells; type: cell-based; details: compared to myoblasts and fibroblasts; p<0.05
Experimental: as §4

A365 cells = test: phage binding to melanoma cells; type: cell-based; details: compared to myoblasts and fibroblasts; p<0.05
Experimental: as §4

U87MG cells = test: phage binding to glioblastoma cells; type: cell-based; details: compared to myoblasts and fibroblasts; p<0.05
Experimental: as §4

[5] = target: recombinant human furin without membrane-domain (81 kD) (human) (UniProt P09958)

CMGTTNTRTKKC (disulfide 1-12 (inferred)) [RMS-P6]
phage binding compared to non-recombinant phage T7 (Rh30 cells): 120 fold
phage binding compared to non-recombinant phage T7 (Rh4 cells): 230 fold
phage binding compared to non-recombinant phage T7 (RD cells; RD cells, three independent experiments): 1270 fold
phage binding to tumors versus any other organ (RD xenograft tumors): bound significantly better to tumors than to any other organ

CSPNNTRRPNKC (disulfide 1-12 (inferred)) [phage RMS-Pctrl, phage displaying […], arose spontaneously during the in vitro screening; negative control]
binding to tumor cells [1]: no binding to tumor cells

CMGTINTRTRRC (disulfide 1-12 (inferred)) [RMS-P3/RR]
furin activity remaining (recombinant human furin [2]; 100 µM peptide, % of the control, furin 3.3U, 15 min preincubation RT, substrate 100 µM, 50 mM Tris HCl, 1 mM CaCl2, pH 7, three independent experiments): 14 % of the control
effect on furin activity (recombinant human furin [2]; increasing concentrations): concentration dependent decrease of furin activity
binding of recombinant furin to peptide column (recombinant human furin [3]): detected a furin band in the specific eluate
furin in competitive eluate from peptide column (membrane-bound furin): competitive eluates contained detectable amounts of membrane-bound furin
phage binding to RD cells compared to RMS-P3 (RD cells; both Lys replaced by Arg, One-way ANOVA, Tukey Kramer HSD, p<0.05 vs all other alanine mutants): no significant difference in binding to RD cells

CMGTINTATAAC (disulfide 1-12 (inferred)) [RMS-P3/AA]
binding of recombinant furin to peptide column (recombinant human furin [3]): did not bind recombinant furin
peptide uptake in kidney [4]: found in the kidneys
peptide accumulation in tumor ([4]; cryosections): did not accumulate in the tumor; also recorded: No fluorescence was detectable
furin in competitive eluate from peptide column (membrane-bound furin): not the case
decrease in phage binding compared to RMS-P3 (RD cells; alanine-scan, RD cells, three independent experiments, p<0.05): 70 fold

CMGTINTRTKKC (disulfide 1-12 (inferred)) [phage RMS-P3]
tumor/muscle ratio (Rh4 xenograft tumors): 24 fold
phage binding to breast carcinoma cells (MDA-MB 231 cells): significant binding; also recorded: very good binding
phage binding to melanoma cells (A365 cells): significant binding; also recorded: very good binding
phage binding to glioblastoma cells (U87MG cells): significant binding; also recorded: very good binding
phage binding to tumors versus any other organ (RD xenograft tumors): bound significantly better to tumors than to any other organ
tumor/muscle ratio (RD xenograft tumors; phage, eRMS (RD) xenograft): 24 fold

B1: RMS-P3/RR peptide (peptide)
peptide: CMGTINTRTRRC
modifications: not fully specified (bridges); also: cyclic peptide, mode of cyclisation not given here
furin activity (cleavage of the fluorogenic substrate Boc-RRVR-AMC by 3.3U recombinant furin) with increasing concentrations of RMS-P3/RR (10-100 µM); activity left at 100 µM (% of the control) [5]: 14
